Values joined by “and” are separate entries in the source; they are usually repeats but may differ in a detail not shown here. Identical values can stand only once. Like-named read-outs stand apart in the source and are kept apart here. No end group written: not given here.
Assays:
H-2 Db = H-2 Db (Mus musculus, UniProt P01899); experiment: biochemical; assay type: binding, murine; settings: Db
HLA-A*0101 = HLA-A*0101 (Homo sapiens, UniProt P04439, A114D/A174V/A182V/D101N/D185E/E176A/E190D/L180R/Q94H/R68K/S129P/T187R/V100A/V91M/W191G); experiment: biochemical; assay type: binding; settings: Binding affinity to A*0101 (expressed as an IC50)
HLA-A*3002 = HLA-A*3002 (Homo sapiens, UniProt P04439, D101N/D140H/D185E/E176R/F33S/G80R/H175R/K168Q/Q94H/R138E/R41S/V100E); experiment: biochemical; assay type: binding
HLA-A*2902 = HLA-A*2902 (Homo sapiens, UniProt P04439, A270S/D101N/D185E/E176V/E277Q/E87Q/F33T/G231S/H175R/I121M/I218V/I322F/K168Q/L300P/L318F/M331R/P208A/P217A/Q86L/T323A/T345S/V100A/V358M); experiment: MHC molecular binding / Capture assay, IC50: A*2902
[1] = Binding affinity to A*3002 (expressed as an IC50)
[2] = Binding affinity to A*2902 (expressed as an IC50)

Sequence of H-2 Db (P61769 21-119): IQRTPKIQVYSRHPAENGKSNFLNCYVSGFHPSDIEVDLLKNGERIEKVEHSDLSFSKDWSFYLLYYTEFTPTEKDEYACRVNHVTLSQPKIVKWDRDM
Sequence of H-2 Db (P01899 25-362): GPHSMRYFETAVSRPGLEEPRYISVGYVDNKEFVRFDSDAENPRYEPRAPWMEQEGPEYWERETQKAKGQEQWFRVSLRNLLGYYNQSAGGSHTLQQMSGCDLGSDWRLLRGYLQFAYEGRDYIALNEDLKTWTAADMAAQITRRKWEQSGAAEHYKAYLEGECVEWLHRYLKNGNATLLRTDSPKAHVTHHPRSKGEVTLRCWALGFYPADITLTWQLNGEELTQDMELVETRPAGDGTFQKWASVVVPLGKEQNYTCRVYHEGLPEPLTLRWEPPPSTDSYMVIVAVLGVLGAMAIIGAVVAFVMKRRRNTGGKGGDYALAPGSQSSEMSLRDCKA

With FQPQNGQFI the IC50 (H-2 Db) was 6.9 nM and 4.9 nM and 17 nM.
Sequence FTDLRIVY has an IC50 (HLA-A*0101) of 26 nM, an IC50 (HLA-A*3002; [1]) of 8060 nM and an IC50 (HLA-A*2902; [2]) of 813 nM.
In the case of FTSKVRKYRY, the IC50 (HLA-A*0101) is reported as 64 nM and 37 nM, the IC50 (HLA-A*3002) is reported as 52 nM and the IC50 (HLA-A*2902) is reported as 6680 nM.
GMRQNATEI gave an IC50 (H-2 Db) of 81 nM.
ITDIILECVY was tested, and the IC50 (HLA-A*0101) was 1.8 nM, the IC50 (HLA-A*3002) was 505 nM and the IC50 (HLA-A*2902) was 7660 nM.
For KAVYNFATCGI, the IC50 (H-2 Db) was 29 nM.
KQYLNLYPV was tested, and the IC50 (H-2 Db) was 3.4 nM.
In the case of KTDQRSEVY, the IC50 (HLA-A*0101) is reported as 84 nM and 41 nM, the IC50 (HLA-A*3002) is reported as 1170 nM and the IC50 (HLA-A*2902) is reported as 200000 nM.
KTRYYDYSVY gave an IC50 (HLA-A*0101) of 2960 nM, an IC50 (HLA-A*3002) of 0.71 nM and an IC50 (HLA-A*2902) of 87800 nM.
Sequence KYDYYDYSVY has an IC50 (HLA-A*0101) of 186000 nM, an IC50 (HLA-A*3002) of 11 nM and an IC50 (HLA-A*2902) of 5750 nM.
LTDIEITCVY was tested, and the IC50 (HLA-A*0101) was 12 nM and 33 nM, the IC50 (HLA-A*3002) was 80 nM and the IC50 (HLA-A*2902) was 540 nM.
LTDLRLSCVY showed an IC50 (HLA-A*0101) of 45 nM, an IC50 (HLA-A*3002) of 613 nM and an IC50 (HLA-A*2902) of 1780 nM.
In the case of LTEYVLDLY, the IC50 (HLA-A*0101) is reported as 6 nM and 8 nM, the IC50 (HLA-A*3002) is reported as 81 nM and the IC50 (HLA-A*2902) is reported as 941 nM.
In the case of QNADKNFLY, the IC50 (HLA-A*0101) is reported as 3810 nM, the IC50 (HLA-A*3002; [1]) is reported as 663 nM and the IC50 (HLA-A*2902; [2]) is reported as 24 nM.
QTEQATSNY showed an IC50 (HLA-A*0101) of 14 nM, an IC50 (HLA-A*3002) of 3250 nM and an IC50 (HLA-A*2902) of 119000 nM.
Sequence QTEQATSNYY has an IC50 (HLA-A*0101) of 11 nM, an IC50 (HLA-A*3002) of 500 nM and an IC50 (HLA-A*2902) of 9580 nM.
Sequence RTAKQHTCY has an IC50 (HLA-A*0101) of 5650 nM, an IC50 (HLA-A*3002) of 346 nM and an IC50 (HLA-A*2902) of 130000 nM.
In the case of RTDILDLWVY, the IC50 (HLA-A*0101) is reported as 85 nM, the IC50 (HLA-A*3002) is reported as 360 nM and the IC50 (HLA-A*2902) is reported as 13400 nM.
STVKHHMY showed an IC50 (HLA-A*0101) of 8130 nM, an IC50 (HLA-A*3002) of 68 nM and an IC50 (HLA-A*2902) of 1760 nM.
TLEKGPGPGLY gave an IC50 (HLA-A*0101) of 13 nM, an IC50 (HLA-A*3002; [1]) of 40 nM and an IC50 (HLA-A*2902; [2]) of 2040 nM.
TLEKLGPGPGY showed an IC50 (HLA-A*0101) of 269 nM, an IC50 (HLA-A*3002; [1]) of 1960 nM and an IC50 (HLA-A*2902; [2]) of 4470 nM.
TLGPGPGTGLY was tested, and the IC50 (HLA-A*0101) was 350 nM, the IC50 (HLA-A*3002; [1]) was 7.4 nM and the IC50 (HLA-A*2902; [2]) was 1320 nM.
VSSIFISFY showed an IC50 (HLA-A*0101) of 144 nM, an IC50 (HLA-A*3002; [1]) of 55 nM and an IC50 (HLA-A*2902; [2]) of 1800 nM.
YSDIRELRHY was tested, and the IC50 (HLA-A*0101) was 14 nM, the IC50 (HLA-A*3002) was 740 nM and the IC50 (HLA-A*2902) was 1140 nM.
YSDVRKYRYY was tested, and the IC50 (HLA-A*0101) was 19 nM, the IC50 (HLA-A*3002) was 794 nM and the IC50 (HLA-A*2902) was 849 nM.
In the case of YTDGPGIRY, the IC50 (HLA-A*0101) is reported as 11 nM, the IC50 (HLA-A*3002) is reported as 7910 nM and the IC50 (HLA-A*2902) is reported as 562 nM.
In the case of YTKVSEFRWY, the IC50 (HLA-A*0101) is reported as 276 nM and 204 nM, the IC50 (HLA-A*3002) is reported as 420 nM and the IC50 (HLA-A*2902) is reported as 3310 nM.
